Measured values from patent publication US20140242012A1, “METHODS FOR TREATING UV-DAMAGED SKIN AND SCC TUMORS AND FOR REMOVING TATTOOS WITH TOPICAL INGENOL MEBUTATE” (LEO Laboratories Limited, priority 2011, published 2014).

Key:
[1] = Ogbourne et al. 2004; cited from earlier work
[2] = test system: UVB-damaged skin; experiment: Skin appearance and histology after treatment of UVB-damaged skin; type: in vivo, SKH1/hr mice
Protocol: For histological studies samples were fixed in 10% formalin and processed for paraffin embedding at the indicated times after ingenol mebutate treatment. Paraffin sections were stained with haematoxylin and eosin (H&E), or toluidine blue using standard protocols.
(§1) Three days after the last dose of UVB irradiation, an about 4 cm^2 dorsal area was topically treated daily for 2 days with 40 μl of 0.05% PEP005 gel or placebo gel. The treatment area was demarcated by a tattoo. Mice were culled 6 h (6 h) and 24 h (Day 1) after the first dose of 0.05% PEP005 gel and 24 h after the second dose of 0.05% PEP005 gel or placebo gel (Day 2). The samples were fixed in 10% formalin and processed by QIMR histology for paraffin embedding. Paraffin sections were stained with haematoxylin and eosin (H&E), Leder stain or toludine blue by QIMR Histotechnology, in accordance with standard protocols.
To identify the histological changes after 0.05% PEP005 gel treatment, skin was examined at different times after treatment; 6 h after the first dose was applied (6 h), 24 h after the first dose was applied (Day 1), and 24 h after the second dose was applied (Day 2). Placebo treated mice were treated with equivalent volumes of placebo gel and the skin examined 24 h after the second dose.
as §1, with “a ˜4 cm2” for “an about 4 cm^2”
Three days after the last dose of UVB irradiation, a ˜4 cm^2 dorsal area is topically treated daily for 2 days with 40 μl of 0.05% PEP005 gel or placebo gel. The treatment area is demarcated by a tattoo. […]

**Q.** For C/C=C(/C)C(=O)O[C@H]1C(C)=C[C@]23C(=O)[C@@H](C=C(CO)[C@@H](O)[C@]12O)[C@H]1[C@@H](C[C@H]3C)C1(C)C [ingenol mebutate], which LD90 values [1] is on record?
**A.** 180 to 220 µM

**Q.** And the “haemorrhage in treated skin” value ([2]; 24-48 h after treatment initiation)?
**A.** widespread haemorrhage

**Q.** And the “mast cells (toluidine blue staining)” value ([2]; 24 h)?
**A.** few toluidine blue staining cells could be seen

**Q.** What about the “reduction of mean skin area within the tattooed treatment area” value ([2]; after healing up to 20-21 weeks, ~4 or ~10 cm2 area) of the same molecule?
**A.** about 3 fold
